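Where inhibition never reached the appropriate level, the endpoint shown equals the highest concentration tested. Otherwise, values were interpolated linearly from a five-concentration, 48-hour dose response in 96-well plates. GI50: concentration for 50% inhibition of growth. The concentration for full growth arrest is given as TGI.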
How the values were obtained:
Experiment in all cases: growth of human tumour cells (NCI), 48 h; in the data active = GI50 below about 0.43 µM; inactive = the rest
OVCAR-8 ovarian = system: OVCAR-8 ovarian
SW-620 colon = system: SW-620 colon
DU-145 prostate = system: DU-145 prostate
SN12C renal = system: SN12C renal
MCF7 breast = system: MCF7 breast
COLO 205 colon = system: COLO 205 colon
UO-31 renal = system: UO-31 renal
RXF 393 renal = system: RXF 393 renal
UACC-62 melanoma = system: UACC-62 melanoma
LOX IMVI melanoma = system: LOX IMVI melanoma
786-0 renal = system: 786-0 renal
HS 578T breast = system: HS 578T breast
EKVX NSCLC = system: EKVX NSCLC
SF-295 CNS = system: SF-295 CNS
SK-MEL-5 melanoma = system: SK-MEL-5 melanoma
SK-MEL-28 melanoma = system: SK-MEL-28 melanoma
MALME-3M melanoma = system: MALME-3M melanoma
MDA-MB-435 = system: MDA-MB-435
SNB-75 CNS = system: SNB-75 CNS
SF-268 CNS = system: SF-268 CNS
OVCAR-5 ovarian = system: OVCAR-5 ovarian
HCT-15 colon = system: HCT-15 colon
RPMI-8226 leukemia = system: RPMI-8226 leukemia
BT-549 breast = system: BT-549 breast
HCT-116 colon = system: HCT-116 colon
T-47D breast = system: T-47D breast
NCI-H460 lung = system: NCI-H460 lung
HT29 colon = system: HT29 colon
TK-10 renal = system: TK-10 renal
NCI/ADR-RES ovarian = system: NCI/ADR-RES ovarian
KM12 colon = system: KM12 colon
MDA-N = system: MDA-N
ACHN renal = system: ACHN renal
SNB-19 CNS = system: SNB-19 CNS
HOP-92 NSCLC = system: HOP-92 NSCLC
MOLT-4 leukemia = system: MOLT-4 leukemia
HL-60(TB) leukemia = system: HL-60(TB) leukemia
CCRF-CEM leukemia = system: CCRF-CEM leukemia
U251 CNS = system: U251 CNS
OVCAR-3 ovarian = system: OVCAR-3 ovarian
A498 renal = system: A498 renal
SR leukemia = system: SR leukemia
SF-539 CNS = system: SF-539 CNS
MDA-MB-231 breast = system: MDA-MB-231 breast
UACC-257 melanoma = system: UACC-257 melanoma
NCI-H23 lung = system: NCI-H23 lung
NCI-H522 lung = system: NCI-H522 lung
M14 melanoma = system: M14 melanoma
SK-MEL-2 melanoma = system: SK-MEL-2 melanoma
SK-OV-3 ovarian = system: SK-OV-3 ovarian
A549 NSCLC = system: A549 NSCLC
CAKI-1 renal = system: CAKI-1 renal
PC-3 prostate = system: PC-3 prostate
K-562 leukemia = system: K-562 leukemia
IGROV1 ovarian = system: IGROV1 ovarian
HOP-62 NSCLC = system: HOP-62 NSCLC
NCI-H226 lung = system: NCI-H226 lung
OVCAR-4 ovarian = system: OVCAR-4 ovarian
HCC-2998 colon = system: HCC-2998 colon

COc1cc2c3c(n(C)c(=O)c2cc1OC)-c1cc2c(cc1/C3=C/CCCCBr)OCO2
96.1 µM: TGI (SNB-75 CNS)
7.44 µM: TGI (CCRF-CEM leukemia)
87.4 µM: TGI (A498 renal)
64.5 µM: TGI (RPMI-8226 leukemia)
> 100 µM: TGI (OVCAR-8 ovarian) | TGI (SW-620 colon) | TGI (DU-145 prostate) | TGI (SN12C renal) | TGI (MCF7 breast) | TGI (COLO 205 colon) | TGI (UO-31 renal) | TGI (RXF 393 renal) | TGI (UACC-62 melanoma) | TGI (LOX IMVI melanoma) | TGI (786-0 renal) | TGI (HS 578T breast) | TGI (EKVX NSCLC) | TGI (SF-295 CNS) | TGI (SK-MEL-5 melanoma) | TGI (SK-MEL-28 melanoma) | TGI (MALME-3M melanoma) | TGI (MDA-MB-435) | TGI (SF-268 CNS) | TGI (OVCAR-5 ovarian) | TGI (HCT-15 colon) | TGI (BT-549 breast) | TGI (HCT-116 colon) | TGI (T-47D breast) | TGI (NCI-H460 lung) | TGI (HT29 colon) | TGI (TK-10 renal) | TGI (NCI/ADR-RES ovarian) | TGI (KM12 colon) | TGI (MDA-N) | TGI (ACHN renal) | TGI (SNB-19 CNS) | TGI (HOP-92 NSCLC) | TGI (MOLT-4 leukemia) | TGI (HL-60(TB) leukemia) | TGI (U251 CNS) | TGI (OVCAR-3 ovarian) | TGI (SF-539 CNS) | TGI (MDA-MB-231 breast) | TGI (UACC-257 melanoma) | TGI (NCI-H23 lung) | TGI (NCI-H522 lung) | TGI (M14 melanoma) | TGI (SK-MEL-2 melanoma) | TGI (SK-OV-3 ovarian) | TGI (A549 NSCLC) | TGI (CAKI-1 renal) | TGI (PC-3 prostate) | TGI (K-562 leukemia) | TGI (IGROV1 ovarian) | TGI (HOP-62 NSCLC)
inactive: GI50 (DU-145 prostate) 4.46 µM | GI50 (SN12C renal) > 100 µM | GI50 (UACC-62 melanoma) > 100 µM | GI50 (MDA-MB-435) > 100 µM | GI50 (HCT-116 colon) 9.47 µM | GI50 (OVCAR-3 ovarian) > 100 µM | GI50 (SF-539 CNS) 7.07 µM | GI50 (HOP-62 NSCLC) 26.6 µM
15.6 µM: TGI (SR leukemia)

Oc1c(Br)cc(CN(Cc2cc(Br)c(O)c(Br)c2)C2CCCCC2)cc1Br
> 100 µM: TGI (OVCAR-8 ovarian) | TGI (SW-620 colon) | TGI (DU-145 prostate) | TGI (SN12C renal) | TGI (MCF7 breast) | TGI (COLO 205 colon) | TGI (UO-31 renal) | TGI (RXF 393 renal) | TGI (UACC-62 melanoma) | TGI (LOX IMVI melanoma) | TGI (786-0 renal) | TGI (HS 578T breast) | TGI (EKVX NSCLC) | TGI (SF-295 CNS) | TGI (SK-MEL-5 melanoma) | TGI (SK-MEL-28 melanoma) | TGI (MALME-3M melanoma) | TGI (MDA-MB-435) | TGI (SNB-75 CNS) | TGI (SF-268 CNS) | TGI (OVCAR-5 ovarian) | TGI (HCT-15 colon) | TGI (RPMI-8226 leukemia) | TGI (BT-549 breast) | TGI (HCT-116 colon) | TGI (T-47D breast) | TGI (HT29 colon) | TGI (TK-10 renal) | TGI (NCI/ADR-RES ovarian) | TGI (KM12 colon) | TGI (MDA-N) | TGI (ACHN renal) | TGI (SNB-19 CNS) | TGI (NCI-H226 lung) | TGI (HOP-92 NSCLC) | TGI (MOLT-4 leukemia) | TGI (HL-60(TB) leukemia) | TGI (CCRF-CEM leukemia) | TGI (U251 CNS) | TGI (OVCAR-3 ovarian) | TGI (A498 renal) | TGI (SR leukemia) | TGI (OVCAR-4 ovarian) | TGI (MDA-MB-231 breast) | TGI (UACC-257 melanoma) | TGI (NCI-H23 lung) | TGI (NCI-H522 lung) | TGI (M14 melanoma) | TGI (SK-MEL-2 melanoma) | TGI (SK-OV-3 ovarian) | TGI (A549 NSCLC) | TGI (CAKI-1 renal) | TGI (PC-3 prostate) | TGI (K-562 leukemia) | TGI (IGROV1 ovarian) | TGI (HOP-62 NSCLC)

OCC1OC(O[C@H]2CN3[C@H](O)[C@@H](O)[C@H](O)[C@H]3C2O)C(O)C(O)C1O (some centres not stated)
> 100 µM: TGI (OVCAR-8 ovarian) | TGI (SW-620 colon) | TGI (DU-145 prostate) | TGI (SN12C renal) | TGI (MCF7 breast) | TGI (COLO 205 colon) | TGI (UO-31 renal) | TGI (RXF 393 renal) | TGI (UACC-62 melanoma) | TGI (LOX IMVI melanoma) | TGI (786-0 renal) | TGI (HS 578T breast) | TGI (EKVX NSCLC) | TGI (SF-295 CNS) | TGI (SK-MEL-5 melanoma) | TGI (SK-MEL-28 melanoma) | TGI (MALME-3M melanoma) | TGI (MDA-MB-435) | TGI (SF-268 CNS) | TGI (OVCAR-5 ovarian) | TGI (HCT-15 colon) | TGI (RPMI-8226 leukemia) | TGI (BT-549 breast) | TGI (HCT-116 colon) | TGI (T-47D breast) | TGI (NCI-H460 lung) | TGI (HT29 colon) | TGI (TK-10 renal) | TGI (NCI/ADR-RES ovarian) | TGI (KM12 colon) | TGI (MDA-N) | TGI (ACHN renal) | TGI (SNB-19 CNS) | TGI (NCI-H226 lung) | TGI (HOP-92 NSCLC) | TGI (MOLT-4 leukemia) | TGI (HL-60(TB) leukemia) | TGI (CCRF-CEM leukemia) | TGI (U251 CNS) | TGI (OVCAR-3 ovarian) | TGI (A498 renal) | TGI (SR leukemia) | TGI (SF-539 CNS) | TGI (OVCAR-4 ovarian) | TGI (MDA-MB-231 breast) | TGI (HCC-2998 colon) | TGI (UACC-257 melanoma) | TGI (NCI-H23 lung) | TGI (NCI-H522 lung) | TGI (M14 melanoma) | TGI (SK-MEL-2 melanoma) | TGI (SK-OV-3 ovarian) | TGI (A549 NSCLC) | TGI (CAKI-1 renal) | TGI (PC-3 prostate) | TGI (K-562 leukemia) | TGI (IGROV1 ovarian) | TGI (HOP-62 NSCLC)

O=C(CN=C(CN(c1ccccc1)c1ccccc1)Oc1c(Cl)cc(Cl)cc1Cl)n1cnc2ccccc21
> 100 µM: TGI (OVCAR-8 ovarian) | TGI (SW-620 colon) | TGI (DU-145 prostate) | TGI (SN12C renal) | TGI (MCF7 breast) | TGI (COLO 205 colon) | TGI (UACC-62 melanoma) | TGI (786-0 renal) | TGI (HS 578T breast) | TGI (EKVX NSCLC) | TGI (SF-295 CNS) | TGI (SK-MEL-5 melanoma) | TGI (SK-MEL-28 melanoma) | TGI (MALME-3M melanoma) | TGI (MDA-MB-435) | TGI (SNB-75 CNS) | TGI (SF-268 CNS) | TGI (OVCAR-5 ovarian) | TGI (HCT-15 colon) | TGI (RPMI-8226 leukemia) | TGI (BT-549 breast) | TGI (HCT-116 colon) | TGI (T-47D breast) | TGI (NCI-H460 lung) | TGI (HT29 colon) | TGI (TK-10 renal) | TGI (NCI/ADR-RES ovarian) | TGI (KM12 colon) | TGI (MDA-N) | TGI (ACHN renal) | TGI (SNB-19 CNS) | TGI (NCI-H226 lung) | TGI (HOP-92 NSCLC) | TGI (MOLT-4 leukemia) | TGI (HL-60(TB) leukemia) | TGI (CCRF-CEM leukemia) | TGI (U251 CNS) | TGI (OVCAR-3 ovarian) | TGI (SR leukemia) | TGI (SF-539 CNS) | TGI (OVCAR-4 ovarian) | TGI (MDA-MB-231 breast) | TGI (HCC-2998 colon) | TGI (UACC-257 melanoma) | TGI (NCI-H23 lung) | TGI (NCI-H522 lung) | TGI (M14 melanoma) | TGI (SK-OV-3 ovarian) | TGI (A549 NSCLC) | TGI (PC-3 prostate) | TGI (K-562 leukemia) | TGI (IGROV1 ovarian) | TGI (HOP-62 NSCLC)
25.6 µM: TGI (RXF 393 renal)

Source: PubChem BioAssay (NCI)
